From the supplement of paper PMC10307832

Compound: Cc1nc(NC(=O)N2CCC[C@H]2C(N)=O)sc1-c1ccnc(C(C)(C)C(F)(F)F)c1 [Alpelisib] + CC1(C)CCC(c2ccc(Cl)cc2)=C(CN2CCN(c3ccc(C(=O)NS(=O)(=O)c4ccc(N[C@H](CCN5CCOCC5)CSc5ccccc5)c(S(=O)(=O)C(F)(F)F)c4)cc3)CC2)C1 [Navitoclax] (partner 0.5 µM)
Test: relative viability (nuclei count vs DMSO), 5 days (fraction); higher = more cells survive
Conditions: first compound 1.265 µM
In short: (§1)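 Values are medians from duplicate plates. Each reflects relative viability, defined as the nuclei count of treated wells over that of vehicle wells. Lung cancer cell lines in 1536-well plates were pin-tool dosed one day after seeding with one drug alone or with a fixed anchor-drug dose plus five library-drug doses (not always all listed) in √10 steps, then fixed, stained and imaged at 4× after 5 days.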

Row | Cell Line | relative viability
1 | NCI-H1651 | 0.773
2 | PC-3 [JPC-3] | 0.73
3 | SW 1573 | 0.768
4 | ChaGo-K-1 | 0.731
5 | NCI-H2009 | 1.08
6 | Calu-6 | 0.633
7 | SK-LU-1 | 0.814
8 | COR-L23 | 0.789
9 | NCI-H1792 | 0.514
10 | COR-L 105 | 0.615
11 | NCI-H520 | 1.03
12 | EBC-1 | 0.233
13 | NCI-H2228 | 0.51
14 | A549 | 0.851
15 | IA-LM | 0.628
16 | SK-MES-1 | 1.02
17 | NCI-H441 | 0.43

Same assay, conditions: first compound 4 µM

Row | Cell Line | relative viability
18 | NCI-H2126 | 0.525
19 | EPLC-272H | 0.79
20 | NCI-H1755 | 0.705
21 | NCI-H2023 | 0.66
22 | NCI-H1650 | 1.19
23 | NCI-H1793 | 0.365
24 | H3255 | 0.407
25 | NCI-H1975 | 0.511
26 | PC-14 | 0.945
27 | NCI-H1299 | 1.02
28 | NCI-H1437 | 1.03
29 | HOP-62 | 1.06
30 | HCC-44 | 0.735
31 | BEN | 0.0615
32 | LOU-NH91 | 0.343
33 | NCI-H1651 | 0.791

Row | Cell Line | relative viability
34 | PC-3 [JPC-3] | 0.762
35 | SW 1573 | 0.585
36 | ChaGo-K-1 | 0.583
37 | NCI-H2009 | 1.13
38 | Calu-6 | 0.621
39 | SK-LU-1 | 0.654
40 | COR-L23 | 0.753
41 | NCI-H1792 | 0.336
42 | COR-L 105 | 0.554
43 | NCI-H520 | 0.822
44 | EBC-1 | 0.281
45 | NCI-H2228 | 0.294
46 | A549 | 0.715
47 | IA-LM | 0.718
48 | SK-MES-1 | 0.793
49 | NCI-H441 | 0.552

Compound: COc1cccc2cc(-c3nc([C@H]4CC[C@H](C(=O)O)CC4)n4ncnc(N)c34)[nH]c12 [OSI-027] + NC(=O)Nc1cc(-c2cccc(F)c2)sc1C(=O)N[C@H]1CCCNC1 [AZD7762] (partner 0.2 µM)
Test: as above
Conditions: first compound 0.01 µM
In short: as §1

Row | Cell Line | relative viability
50 | NCI-H2126 | 0.975
51 | EPLC-272H | 0.262
52 | NCI-H1755 | 0.442
53 | NCI-H1793 | 0.409
54 | NCI-H2342 | 0.444
55 | H3255 | 0.888
56 | NCI-H1975 | 0.708
57 | PC-14 | 0.369
58 | NCI-H1437 | 1.11
59 | HOP-62 | 0.611
60 | HCC-44 | 0.984
61 | BEN | 0.698
62 | LOU-NH91 | 0.762
63 | NCI-H1651 | 0.471
64 | PC-3 [JPC-3] | 0.778
65 | NCI-H1648 | 0.813
66 | ChaGo-K-1 | 0.912
67 | ABC-1 | 0.886
68 | LCLC-103H | 0.8
69 | NCI-H522 | 0.807
70 | NCI-H1792 | 0.673
71 | NCI-H358 | 0.544
72 | NCI-H650 | 0.925
73 | SW 900 | 0.669
74 | NCI-H441 | 1.35

Same assay, conditions: first compound 0.03162 µM

Row | Cell Line | relative viability
75 | NCI-H2126 | 0.954
76 | EPLC-272H | 0.212
77 | NCI-H1755 | 0.432
78 | NCI-H1793 | 0.435
79 | NCI-H2342 | 0.426
80 | H3255 | 0.958
81 | NCI-H1975 | 0.697
82 | PC-14 | 0.314
83 | NCI-H1437 | 1.02
84 | HOP-62 | 0.47
85 | HCC-44 | 1.03
86 | BEN | 0.604
87 | LOU-NH91 | 0.702
88 | NCI-H1651 | 0.415
89 | PC-3 [JPC-3] | 0.703
90 | NCI-H1648 | 0.572
91 | ChaGo-K-1 | 0.902
92 | ABC-1 | 0.764
93 | LCLC-103H | 0.717
94 | NCI-H522 | 0.89
95 | NCI-H1792 | 0.704
96 | NCI-H358 | 0.472
97 | NCI-H650 | 1.06
98 | SW 900 | 0.575
99 | NCI-H441 | 1.07

Same assay, conditions: first compound 0.1 µM

Row | Cell Line | relative viability
100 | NCI-H2126 | 0.998
101 | EPLC-272H | 0.162
102 | NCI-H1755 | 0.574
103 | NCI-H1793 | 0.399
104 | NCI-H2342 | 0.553
105 | H3255 | 0.714
106 | NCI-H1975 | 0.545
107 | PC-14 | 0.302
108 | NCI-H1437 | 1.14
109 | HOP-62 | 0.33
110 | HCC-44 | 1.03
111 | BEN | 0.435
112 | LOU-NH91 | 0.667
113 | NCI-H1651 | 0.425
114 | PC-3 [JPC-3] | 0.521
115 | ChaGo-K-1 | 0.936
116 | ABC-1 | 0.728
117 | LCLC-103H | 0.748
118 | NCI-H522 | 0.68
119 | NCI-H1792 | 0.682
120 | NCI-H358 | 0.543
121 | NCI-H650 | 0.955
122 | SW 900 | 0.499
123 | NCI-H441 | 1.24

Same assay, conditions: first compound 0.3162 µM

Row | Cell Line | relative viability
124 | NCI-H2126 | 0.868
125 | EPLC-272H | 0.0961
126 | NCI-H1755 | 0.507
127 | NCI-H1793 | 0.36
128 | NCI-H2342 | 0.414
129 | H3255 | 0.832
130 | NCI-H1975 | 0.609
131 | PC-14 | 0.35
132 | NCI-H1437 | 1
133 | HOP-62 | 0.587
134 | HCC-44 | 1.06
135 | BEN | 0.464
136 | LOU-NH91 | 0.597
137 | NCI-H1651 | 0.465
138 | PC-3 [JPC-3] | 0.42
139 | NCI-H1648 | 0.705
140 | ChaGo-K-1 | 0.836
141 | ABC-1 | 0.555
142 | LCLC-103H | 0.64
143 | NCI-H522 | 0.672
144 | NCI-H1792 | 0.668
145 | NCI-H358 | 0.56
146 | NCI-H650 | 0.902
147 | SW 900 | 0.508
148 | NCI-H441 | 0.934

Same assay, conditions: first compound 1 µM

Row | Cell Line | relative viability
149 | NCI-H2126 | 0.819
150 | EPLC-272H | 0.124
151 | NCI-H1755 | 0.396
152 | NCI-H1793 | 0.239
